This is an account of results in patent publication US8420696B2, “Use of low-dose ladostigil for neuroprotection” (priority 2005, dated 2013).

Several values for one entry are separate records, joined by “and”; a condition that tells them apart may be missing. Equal values may be shown once. Entries after “also recorded” stand apart in the source; their conditions may differ.

Test [1] relates to nitrotyrosine immunoreactivity in astrocytes. The experiment in a line: Example 1: nitrotyrosine immunoreactivity in hippocampal CA1 astrocytes one week after icv STZ. Type of test: in vivo, Sprague-Dawley rats. Conditions: for Increase in nitrotyrosine immunoreactivity in astrocytes in three areas of the CA1 region of the hippocampus: ladostigil 1.0 mg/kg daily oral, one week before to one week after icv STZ. As to the method:
The study was performed on male Sprague-Dawley rats (Harlan, Jerusalem) weighing 320-340 g, aged 4 months, according to the guidelines of the University Committee for Institutional Animal Care and based on those of the National Institutes of Health, USA. The rats were housed for one week prior to surgery in the Animal House at an ambient temperature of 21±1° C. and a 12 hr diurnal light cycle (lights on at 0700 hr).
Male Sprague-Dawley rats (30) weighing 320-340 g, were anaesthetized by an intraperitoneal (i.p.) injection of Equithesin 0.3 ml/kg. STZ (0.5 mg) in 2 μl artificial cerebrospinal fluid (CSF) was injected into each lateral ventricle of 20 rats. The stereotaxic co-ordinates for icv injection were: 0.9 mm posterior, 1.8 mm lateral and 3.8 mm ventral from the bregma level. Control rats (10) received a bilateral injection of 2 μl artificial CSF. Half of the STZ-injected rats were given ladostigil (1 mg/kg) orally in a volume of (1 ml/kg) one week before, and for one week after icv STZ. The remainder, received 1 ml/kg water. The rats were anaesthetized with sodium pentobarbitone, perfused transcardially and the brains processed for immunocytochemistry as described below.
The brains were sectioned in a cryostat in 30 μm thick slices and stained immunochemically with the following markers: Nitrotyrosine, a marker of nitrative/oxidative stress, was stained with rabbit anti-nitrotyrosine from Upstate (Lake Placid, N.Y., USA), diluted 1:100. Glial fibrillary acidic protein (GFAP), a marker of astrocyte activation, was stained with mouse antibody, clone GA-5 from Sigma (Rehovot, Israel), diluted 1:500. […]. For rabbit antibodies, the secondary donkey anti-rabbit conjugated with horseradish peroxidase from Chemicon (Temecula, Calif., USA), was diluted 1:200. For mouse anti-GFAP, the secondary goat anti mouse conjugated with horseradish peroxidase from Sigma (Rehovot, Israel), was diluted 1:100. Colour development was obtained by reaction with diaminobenzidine and hydrogen peroxide as described in Shoham et al., Intracerebroventricular injection of streptozotocin causes neurotoxicity to myelin that contributes to spatial memory deficits in rats, Exp. Neurol. (2003) 184:1043-52. Images were obtained by bright field microscopy and quantitative assessments of appropriate markers were made by means of densitometric measurements with AnalySIS software.
Rectangular fields measuring 200 μm×100 μm were sampled from these areas in two sections containing the hippocampus from each rat. The percentage area in which nitrotyrosine immunoreactivity was seen was computed and averaged between the two sections.
Densitometic data were analyzed by univariate ANOVA followed by Duncan's post hoc test.

For test [2], the system named is ChE. Nature of the test: Example 2: total ChE activity in cortex, hippocampus and plasma after ladostigil treatment. Format: in vivo, rats. As to the method:
(§1) The effect of chronic ladostigil treatment on ChE activity in the cortex and hippocampus of rats was determined one week after icv STZ in 12 rats (3 treated with water and 9 with ladostigil). The effect of acute treatment with ladostigil 1 or 17 mg/kg was determined 2 hrs after drug administration. […] The brain was rapidly removed, washed with saline on ice and the cortex, hippocampus and striatum dissected out, quickly weighed and stored at −70° C. until assay. Total ChE activity in the cortex and hippocampus was measured as described in Wang et al., Gender differences in the effect of rivastigmine on brain cholinesterase activity and cognitive function in rats, Neuropharmacology (2000) 39:497-506, using the spectrophotometric method of Ellman et al., A new and rapid colorimetric determination of acetylcholinesterase activity, Biochem. Pharmacol. (1961) 7:88-95 with acetylthiocholine (Sigma Ltd) as a substrate using homogenate of 100 mg tissue in 1 ml phosphate buffer. To determine only butyrylcholinesterase (BuChE) activity the amounts of tissue/ml of buffer were increased 3-fold and butyrylthiocholine (Sigma Ltd) was used as a substrate. MAO A and B activity was measured in homogenates of striatum as described in Weinstock et al., Limited potentiation of blood pressure response to oral tyramine by brain-selective monoamine oxidase A-B inhibitor, TV-3326 in conscious rabbits, Neuropharmacology (2002) 43:999-1005.

For test [3], the target named is T1, MAO-B (Rattus norvegicus, UniProt P19643).
T1 construct: from tissue; host or cells: striatum homogenate of dosed Sprague-Dawley rats
T1 sequence (P19643 1-520): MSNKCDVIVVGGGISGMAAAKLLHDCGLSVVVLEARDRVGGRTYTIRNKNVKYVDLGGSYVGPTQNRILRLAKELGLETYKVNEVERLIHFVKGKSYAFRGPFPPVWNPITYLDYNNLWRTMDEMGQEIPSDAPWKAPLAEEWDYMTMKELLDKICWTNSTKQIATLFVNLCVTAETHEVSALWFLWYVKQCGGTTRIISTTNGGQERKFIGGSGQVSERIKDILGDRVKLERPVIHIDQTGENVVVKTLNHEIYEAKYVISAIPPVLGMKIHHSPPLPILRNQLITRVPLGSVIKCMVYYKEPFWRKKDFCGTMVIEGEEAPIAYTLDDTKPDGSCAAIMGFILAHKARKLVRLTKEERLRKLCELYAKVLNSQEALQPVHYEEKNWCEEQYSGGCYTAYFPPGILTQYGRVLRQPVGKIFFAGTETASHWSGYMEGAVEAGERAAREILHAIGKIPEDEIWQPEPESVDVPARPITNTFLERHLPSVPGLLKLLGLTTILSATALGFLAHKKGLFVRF
The experiment in a line: Example 2: MAO-B activity in homogenates of striatum. Format: in vivo, rats. Conditions: chronic 1 mg/kg. As to the method: as §1, with “To determine only butyrylcholinesterase (BuChE) activity the amounts of tissue/ml of buffer were increased 3-fold and butyrylthiocholine (Sigma Ltd) was used as a substrate.” left out

The mark [4] stands for this setting: STZ + ladostigil 1 mg/kg orally one week before and one week after icv STZ, mean of two sections per rat.
[5] abbreviates: STZ + ladostigil 1 mg/kg orally, n = 5.

As to `C#CCN[C@@H]1CCc2ccc(OC(=O)N(C)CC)cc21` [ladostigil, R(+)-6-(N-methyl,N-ethyl-carbamoyloxy)-N′-propargyl-1-aminoindan], the “Nitrotyrosine Immunoreactivity, Alveus (percentage area), individual rat” value in test [1] (setting [4]) is 4 and 9.5 and 7 and 9 and 15. Also, the “Nitrotyrosine Immunoreactivity, Stratum oriens (percentage area), individual rat” value in test [1] (setting [4]) is 14.5 and 19 and 5.5 and 8.5 and 20.5. Also, in test [1] (setting [4]), the “Nitrotyrosine Immunoreactivity, Stratum radiatum (percentage area), individual rat” value is 1.5 and 22 and 3 and 7.5 and 11.5. The “Nitrotyrosine Immunoreactivity, Alveus (percentage area), group Mean ± SEM” value in test [1] (setting [5]) was determined as 8.9 ± 1.8. The “Nitrotyrosine Immunoreactivity, Stratum oriens (percentage area), group Mean ± SEM” value in test [1] (setting [5]) is 13.6 ± 2.9. For the same molecule, the “Nitrotyrosine Immunoreactivity, Stratum radiatum (percentage area), group Mean ± SEM” value in test [1] (setting [5]) came out at 9.1 ± 3.7. Further, the figures for the “Increase in nitrotyrosine immunoreactivity in astrocytes in three areas of the CA1 region of the hippocampus” value in test [1] and in test [1] (listed as Ladostigil) were “prevented the increase” and “completely prevented the increase”, respectively. The “ChE (%) inhibition” value in test [2] (Cortex, 60 min after last dose, chronic 1 mg/kg, seven days after icv STZ) was determined as 16.1 ± 4.7 %; in test [2] (Cortex, 120 min after last dose, chronic 1 mg/kg, seven days after icv STZ), 23.6 ± 3.1 %; in test [2] (Hippocampus, 60 min, chronic 1 mg/kg) it was 4.9 ± 2.6%; in test [2] (Hippocampus, 120 min, chronic 1 mg/kg), 5.9 ± 3.2%; in test [2] (Plasma, 120 min, chronic 1 mg/kg), 20 ± 2%. Moreover, the “ChE inhibition in the hippocampus or plasma” value in test [2] (acute administration 1 mg/kg) is reported as “not in the hippocampus or plasma”. For the same molecule, the “ChE inhibition in both brain regions and in plasma” value in test [2] (acute administration 17 mg/kg, 17 mg/kg) is 40-42% and 40%. Besides, the “Inhibition of ChE activity in the plasma” value in test [2] (chronic 1 mg/kg) is listed as 20%. The “Inhibition of ChE in the hippocampus” value in test [2] (chronic 1 mg/kg) was “no ChE inhibition occurred; also recorded: no significant AChE inhibition occurred”. Besides, the “Inhibition of total ChE activity in the cortex” value in test [2] (chronic 1 mg/kg, seven days after icv STZ, 1 or 2 hrs after the last dose) was 24% and 28% and ~20%. The results for the “MAO-B (%) inhibition” value in test [3] (60 min) and in test [3] (120 min (2 hrs)) were 11.3 ± 1.4 % and 15%, respectively.
